This passage reports pKa results from US11845828B2, “Polymerizable composition for optical material, optical material, and producing method thereof” (Mitsui Chemicals, Inc., priority 2016, dated 2023).

Each structure is given as a SMILES string.

The series is described as follows: pKa value (acid dissociation index) of compound (A).
In general, pKa refers to the negative logarithm of the acid dissociation constant. The compound `Clc1cccnc1` [Example A3, 3-chloropyridine] displayed a pKa of 2.84.

On to `Cc1cccc(C)n1` [Example A5, 2,6-lutidine], for which the pKa came out at 6.6.

The compound `Cc1cc(C)nc(C)c1` [Example A6, 2,4,6-trimethylpyridine] yielded a pKa of 7.48.

Consider `CCCCCCCCN(CCCCCCCC)CCCCCCCC` [Example A7, trioctylamine], for which the pKa was 8.35.
